Bounds are passed on as bounds.

This passage reports IC50 and Ratio IC50 results from ChEMBL document CHEMBL4229421 (Bioorg Med Chem Lett, 2018).

The subject of test [1] is HCT-116. The test can be described thus: Antiproliferative activity against human HCT116 cells. It counts as functional, cell-based.
Test [2] deals with Histone deacetylase 1 (Homo sapiens, UniProt Q13547). Description: Inhibition of human HDAC1 using p53 (379 to 382 residues) derived fluorogenic peptide RHKKAc as substrate.
Histone deacetylase 1, sequence (Q13547 whole entry, the tested form may be a part): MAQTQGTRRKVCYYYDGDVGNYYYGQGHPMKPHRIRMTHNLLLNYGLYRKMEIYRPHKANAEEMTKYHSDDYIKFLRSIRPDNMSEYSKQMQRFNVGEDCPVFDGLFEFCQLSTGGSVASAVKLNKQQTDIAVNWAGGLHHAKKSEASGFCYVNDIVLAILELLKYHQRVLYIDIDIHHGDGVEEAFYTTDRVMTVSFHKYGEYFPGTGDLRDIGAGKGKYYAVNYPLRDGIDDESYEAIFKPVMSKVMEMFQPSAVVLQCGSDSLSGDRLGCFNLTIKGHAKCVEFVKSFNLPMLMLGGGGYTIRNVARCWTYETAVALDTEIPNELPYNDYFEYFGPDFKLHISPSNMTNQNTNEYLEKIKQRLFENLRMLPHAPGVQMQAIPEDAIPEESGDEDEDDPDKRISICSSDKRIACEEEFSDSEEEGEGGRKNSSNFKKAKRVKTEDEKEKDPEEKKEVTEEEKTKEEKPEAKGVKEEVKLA
Test [3] addresses T1, Protein deacetylase HDAC6 (Homo sapiens, UniProt Q9UBN7).
T1 sequence (Q9UBN7 whole entry): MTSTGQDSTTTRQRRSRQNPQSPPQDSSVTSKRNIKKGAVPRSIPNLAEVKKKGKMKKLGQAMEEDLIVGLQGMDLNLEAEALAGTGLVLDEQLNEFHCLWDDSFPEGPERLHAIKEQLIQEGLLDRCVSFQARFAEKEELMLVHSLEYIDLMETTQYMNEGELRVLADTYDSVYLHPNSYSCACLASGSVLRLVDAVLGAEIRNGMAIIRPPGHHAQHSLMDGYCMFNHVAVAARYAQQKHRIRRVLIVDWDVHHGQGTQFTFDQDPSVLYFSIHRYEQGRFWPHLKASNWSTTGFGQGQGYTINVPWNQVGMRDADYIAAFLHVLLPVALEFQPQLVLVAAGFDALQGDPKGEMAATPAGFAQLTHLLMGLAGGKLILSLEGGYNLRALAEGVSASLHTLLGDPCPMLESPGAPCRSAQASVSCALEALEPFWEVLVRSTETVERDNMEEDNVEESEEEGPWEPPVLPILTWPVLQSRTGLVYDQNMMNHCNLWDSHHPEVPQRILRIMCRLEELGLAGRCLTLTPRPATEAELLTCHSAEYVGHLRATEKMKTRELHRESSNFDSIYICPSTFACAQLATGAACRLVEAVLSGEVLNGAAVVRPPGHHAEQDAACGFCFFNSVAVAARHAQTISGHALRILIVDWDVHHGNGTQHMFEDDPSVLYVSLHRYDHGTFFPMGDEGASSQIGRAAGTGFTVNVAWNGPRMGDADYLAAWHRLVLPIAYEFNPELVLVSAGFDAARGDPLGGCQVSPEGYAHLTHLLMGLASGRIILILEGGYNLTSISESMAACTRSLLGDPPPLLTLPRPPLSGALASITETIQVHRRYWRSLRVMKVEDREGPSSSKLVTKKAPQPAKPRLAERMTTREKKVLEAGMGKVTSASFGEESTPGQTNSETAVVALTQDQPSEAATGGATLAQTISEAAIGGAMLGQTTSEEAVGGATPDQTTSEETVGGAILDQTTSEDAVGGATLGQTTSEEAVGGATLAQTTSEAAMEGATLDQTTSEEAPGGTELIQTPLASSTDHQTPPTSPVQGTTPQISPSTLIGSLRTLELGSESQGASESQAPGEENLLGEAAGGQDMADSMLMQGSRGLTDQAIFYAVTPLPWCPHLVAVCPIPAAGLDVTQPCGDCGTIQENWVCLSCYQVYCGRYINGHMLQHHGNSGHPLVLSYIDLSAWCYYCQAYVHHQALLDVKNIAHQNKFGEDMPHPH
The test can be described thus: Inhibition of human HDAC6 using p53 (379 to 382 residues) derived fluorogenic peptide RHKKAc as substrate.

The target in test [4] is Tyrosine-protein kinase JAK2 (Homo sapiens, UniProt O60674). The test can be described thus: Inhibition of human JAK2 using poly[Glu:Tyr] (4:1) as substrate in presence of [gamma-33P]ATP.
Tyrosine-protein kinase JAK2, sequence (O60674 whole entry): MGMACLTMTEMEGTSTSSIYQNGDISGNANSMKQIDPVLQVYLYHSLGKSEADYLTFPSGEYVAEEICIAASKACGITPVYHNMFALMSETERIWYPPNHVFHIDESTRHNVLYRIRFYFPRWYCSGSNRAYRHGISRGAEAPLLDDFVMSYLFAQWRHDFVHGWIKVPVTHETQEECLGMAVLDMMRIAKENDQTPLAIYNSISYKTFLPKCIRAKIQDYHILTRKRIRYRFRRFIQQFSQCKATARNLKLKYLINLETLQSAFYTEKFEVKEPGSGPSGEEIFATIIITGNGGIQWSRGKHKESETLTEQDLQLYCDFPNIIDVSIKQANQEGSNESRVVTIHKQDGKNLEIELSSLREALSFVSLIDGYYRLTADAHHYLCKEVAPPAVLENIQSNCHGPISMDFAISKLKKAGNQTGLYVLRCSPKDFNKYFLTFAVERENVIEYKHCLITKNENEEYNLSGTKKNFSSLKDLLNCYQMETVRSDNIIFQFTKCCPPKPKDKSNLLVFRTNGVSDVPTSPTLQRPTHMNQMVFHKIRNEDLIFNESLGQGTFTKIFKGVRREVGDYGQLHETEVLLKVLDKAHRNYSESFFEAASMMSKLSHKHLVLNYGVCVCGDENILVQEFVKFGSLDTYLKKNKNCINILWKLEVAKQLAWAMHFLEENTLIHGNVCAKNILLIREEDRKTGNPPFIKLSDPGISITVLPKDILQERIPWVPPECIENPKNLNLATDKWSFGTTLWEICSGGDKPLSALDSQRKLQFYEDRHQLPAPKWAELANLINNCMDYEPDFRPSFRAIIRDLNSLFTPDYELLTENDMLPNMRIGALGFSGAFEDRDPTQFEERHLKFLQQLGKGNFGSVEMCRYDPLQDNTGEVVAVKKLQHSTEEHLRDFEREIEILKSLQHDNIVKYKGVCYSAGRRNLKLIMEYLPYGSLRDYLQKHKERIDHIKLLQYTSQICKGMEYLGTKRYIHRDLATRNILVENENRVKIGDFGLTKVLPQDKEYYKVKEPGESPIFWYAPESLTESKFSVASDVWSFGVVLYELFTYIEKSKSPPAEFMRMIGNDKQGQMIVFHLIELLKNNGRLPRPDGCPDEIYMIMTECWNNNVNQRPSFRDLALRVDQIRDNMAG
The species named for test [5] is Homo sapiens. The test can be described thus: Selectivity ratio of IC50 for human HDAC6 to IC50 for human HDAC1.
Test [6] deals with MDA-MB-231. Description: Antiproliferative activity against human MDA-MB-231 cells. The class given is functional, cell-based.
In test [7] the test system is PC-3. The test can be described thus: Antiproliferative activity against human PC3 cells. It counts as functional, cell-based.
The subject of test [8] is MCF7. Description: Antiproliferative activity against human MCF7 cells. It counts as functional, cell-based.

As for `N#CC[C@H](C1CCCC1)n1cc(-c2ncnc3[nH]ccc23)cn1` [RUXOLITINIB], the IC50 (in general, the midpoint of a concentration-inhibition curve) in test [1] was greater than 10000 nM.

For `O=C(CCCCCCC(=O)Nc1ccc(Nc2nc(-c3cnn(CC4CCCC4)c3)c3cc[nH]c3n2)cc1)NO`, the IC50 was determined as 2710 nM in test [2], 9.6 nM in test [3] and 3 nM in test [4]. In addition, the Ratio IC50 in test [5] was found to be 300.

Consider `COCCn1cc(-c2nc(Nc3ccc(NC(=O)CCCCCCC(=O)NO)cc3)nc3[nH]ccc23)cn1`, for which the half-inhibitory concentration (IC50) came to 63 nM in test [2]; 2.1 nM in test [3]; 2.3 nM in test [4]; 13300 nM in test [6]; 9400 nM in test [1]; 35000 nM in test [7]. This compound had an IC50 in test [8] of 12200 nM.

Turning to `C=CCCn1cc(-c2nc(Nc3ccc(NC(=O)CCCCCCC(=O)NO)cc3)nc3[nH]ccc23)cn1`, the IC50 is 83 nM in test [2]; 0.25 nM in test [3]; 0.041 nM in test [4]; 7400 nM in test [6]; 4100 nM in test [1]; 7700 nM in test [7]. In test [8], this compound displayed a half-maximal inhibitory concentration (IC50) of 4500 nM. In addition, the Ratio IC50 in test [5] was greater than 300.

As for `CCCn1cc(-c2nc(Nc3ccc(NC(=O)CCCCCCC(=O)NO)cc3)nc3[nH]ccc23)cn1`, the IC50 in test [2] is 44 nM; in test [3], 1.6 nM; in test [4], 0.15 nM; in test [6] it was 9100 nM; in test [1], 6500 nM; in test [7], 13400 nM. The compound also registered an IC50 in test [8] of 8200 nM.

On to `O=C(CCCCCCC(=O)Nc1ccc(Nc2nc(-c3cn[nH]c3)c3cc[nH]c3n2)cc1)NO`, for which the 50% inhibitory concentration (IC50) in test [2] is 2 nM; in test [3], 0.2 nM; in test [4], 0.96 nM; in test [6], 11800 nM; in test [1], 14400 nM; in test [7] it was 20100 nM. The compound further came in with an IC50 in test [8] of 15600 nM.

For `CS(=O)(=O)CCn1cc(-c2nc(Nc3ccc(NC(=O)CCCCCCC(=O)NO)cc3)nc3[nH]ccc23)cn1`, the 50% inhibitory concentration (IC50) in test [2] is 101 nM; in test [3], 2.3 nM; in test [4], 7.7 nM; in test [6], greater than 100000 nM; in test [1] it was greater than 100000 nM; in test [7] it was greater than 100000 nM. This compound also returned a half-inhibitory concentration (IC50) in test [8] greater than 100000 nM.

Turning to `O=C(CCCCCCOc1ccc2cc1COC/C=C/COCc1cccc(c1)-c1ccnc(n1)N2)NO`, the IC50 in test [6], in test [1], in test [7] and in test [8] was greater than 10000 nM throughout.

Consider `O=C(CCCCCCC(=O)Nc1ccc(Nc2nc(-c3cnn(CCCCOc4ccccc4)c3)c3cc[nH]c3n2)cc1)NO`, for which the IC50 in test [2] is 1720 nM; in test [3] it was 7 nM; in test [4], 40 nM.

With `O=C(CCCCCCC(=O)Nc1ccc(Nc2nc(-c3cnn(CCCCCCOc4ccccc4)c3)c3cc[nH]c3n2)cc1)NO`, the half-inhibitory concentration (IC50) stood at 2000 nM in test [2], 15.8 nM in test [3] and 19 nM in test [4].

`O=C(CCCCCCC(=O)Nc1ccc(Nc2nc(-c3cnn(CCCCCOc4ccccc4)c3)c3cc[nH]c3n2)cc1)NO`: the half-maximal inhibitory concentration (IC50) in test [2] came out at 1320 nM; in test [3] it was 5.2 nM; in test [4], 21 nM.

In the case of `N#CCCn1cc(-c2nc(Nc3ccc(NC(=O)CCCCCCC(=O)NO)cc3)nc3[nH]ccc23)cn1`, the results for the IC50 in test [2] and in test [3] were 45 nM and 0.85 nM, respectively.
